Measured values reported in ChEMBL document CHEMBL5036348, “Identification and evaluation of 4-anilinoquin(az)olines as potent inhibitors of both dengue virus (DENV) and Venezuelan equine encephalitis virus (VEEV)” (Bioorg Med Chem Lett, 2021).

Tested on: dengue virus type 2
Test: Antiviral activity against DENV2 New Guinea C strain infected in human Huh7 cells assessed as reduction in viral infection measured after 48 hrs post infection by renilla luciferase assay relative to control
Type: functional, organism-based
Settings: Huh-7, 48 h
Work on `C#Cc1cccc(Nc2ccnc3cc(OC)c(OC)cc23)c1` yielded an EC50 of 8.6 µM.
`C#Cc1cccc(Nc2ncnc3cc(OC)c(OC)cc23)c1` gave an EC50 of 6.5 µM.
Work on `C#Cc1cccc(Nc2c(C#N)cnc3cc(OC)c(OC)cc23)c1` yielded an EC50 of 3 µM.
For `COc1cc(Nc2ncnc3ccc(C(F)(F)F)cc23)cc(OC)c1OC`, the EC50 was greater than 10 µM.
`COc1cccc(Nc2ccnc3ccc(C(F)(F)F)cc23)c1` gave an EC50 of 0.82 µM.
`N#Cc1ccccc1Nc1ccnc2ccc(C(F)(F)F)cc12` gave an EC50 greater than 10 µM.
Molecule `C#Cc1cccc(Nc2ccnc3ccc(OC)cc23)c1` has an EC50 of 4.3 µM.
`FC(F)(F)c1ccc2nccc(Nc3ccc(Br)cc3)c2c1` gave an EC50 of 4.1 µM.
For `COc1cc(Nc2ccnc3ccc(C(F)(F)F)cc23)cc(OC)c1`, the EC50 was 1.3 µM.
Molecule `COc1ccc(Nc2ccnc3ccc(C(F)(F)F)cc23)cc1OC` has an EC50 of 8.9 µM.
Molecule `C#Cc1cccc(Nc2ccnc3cc(OC)ccc23)c1` has an EC50 of 1.7 µM.
`FC(F)(F)c1ccc2nccc(Nc3ccc4c(c3)OCCO4)c2c1` showed an EC50 greater than 10 µM.
In the case of `FC(F)(F)c1ccc2nccc(Nc3ccc4c(c3)OCO4)c2c1`, the EC50 is reported as 4.1 µM.
Molecule `COc1ccccc1Nc1ccnc2ccc(C(F)(F)F)cc12` has an EC50 greater than 10 µM.
In the case of `FC(F)(F)c1ccc2nccc(Nc3ccc(Cl)c(Cl)c3)c2c1`, the EC50 is reported as 3.3 µM.
For `C#Cc1cccc(Nc2ncnc3cc(OC)c(OC)cc23)c1F`, the EC50 was greater than 10 µM.
Molecule `CS(=O)(=O)c1ccc(Nc2ccnc3ccc(C(F)(F)F)cc23)cc1` has an EC50 of 6.1 µM.
`Fc1cc(Nc2ccnc3ccc(C(F)(F)F)cc23)cc(F)c1F` showed an EC50 greater than 10 µM.
For `FC(F)(F)c1cccc(Nc2ccnc3ccc(C(F)(F)F)cc23)c1`, the EC50 was 5.7 µM.
`CC(=O)c1cccc(Nc2ccnc3ccc(C(F)(F)F)cc23)c1` gave an EC50 of 6.8 µM.
`COc1cccc(Nc2ccnc3cc(OC)c(OC)cc23)c1` gave an EC50 of 5.9 µM.
Work on `C#Cc1ccc(F)c(Nc2ncnc3cc(OC)c(OC)cc23)c1` yielded an EC50 of 9 µM.
With `C#Cc1cccc(Nc2ccnc3ccc(C(F)(F)F)cc23)c1` the EC50 was 3.8 µM.
In the case of `FC(F)(F)c1ccc2nccc(Nc3ccccc3Br)c2c1`, the EC50 is reported as greater than 10 µM.
`FC(F)(F)c1ccc2nccc(Nc3ccc(Cl)cc3)c2c1` gave an EC50 of 7.2 µM.
With `C#Cc1cccc(Nc2c(C#N)cnc3ccc(OC)cc23)c1` the EC50 was 8.9 µM.

Tested on: not listed separately
Test: Cytotoxicity against DENV infected human Huh-7 cells assessed as reduction in cell viability by alamar blue assay
Type: cell-based
Settings: DENV-infected Huh-7 cells
`C#Cc1cccc(Nc2ccnc3cc(OC)c(OC)cc23)c1` showed a CC50 greater than 10 µM.
For `C#Cc1cccc(Nc2ncnc3cc(OC)c(OC)cc23)c1`, the CC50 was greater than 10 µM.
With `C#Cc1cccc(Nc2c(C#N)cnc3cc(OC)c(OC)cc23)c1` the CC50 was greater than 10 µM.
For `COc1cc(Nc2ncnc3ccc(C(F)(F)F)cc23)cc(OC)c1OC`, the CC50 was greater than 10 µM.
For `COc1cccc(Nc2ccnc3ccc(C(F)(F)F)cc23)c1`, the CC50 was greater than 10 µM.
`N#Cc1ccccc1Nc1ccnc2ccc(C(F)(F)F)cc12` showed a CC50 greater than 10 µM.
In the case of `C#Cc1cccc(Nc2ccnc3ccc(OC)cc23)c1`, the CC50 is reported as greater than 10 µM.
With `FC(F)(F)c1ccc2nccc(Nc3ccc(Br)cc3)c2c1` the CC50 was greater than 10 µM.
`COc1cc(Nc2ccnc3ccc(C(F)(F)F)cc23)cc(OC)c1` showed a CC50 greater than 10 µM.
In the case of `COc1ccc(Nc2ccnc3ccc(C(F)(F)F)cc23)cc1OC`, the CC50 is reported as greater than 10 µM.
`C#Cc1cccc(Nc2ccnc3cc(OC)ccc23)c1` gave a CC50 greater than 10 µM.
For `FC(F)(F)c1ccc2nccc(Nc3ccc4c(c3)OCCO4)c2c1`, the CC50 was greater than 10 µM.
`FC(F)(F)c1ccc2nccc(Nc3ccc4c(c3)OCO4)c2c1` showed a CC50 greater than 10 µM.
Work on `COc1ccccc1Nc1ccnc2ccc(C(F)(F)F)cc12` yielded a CC50 greater than 10 µM.
Work on `FC(F)(F)c1ccc2nccc(Nc3ccc(Cl)c(Cl)c3)c2c1` yielded a CC50 greater than 10 µM.
`C#Cc1cccc(Nc2ncnc3cc(OC)c(OC)cc23)c1F` showed a CC50 greater than 10 µM.
With `CS(=O)(=O)c1ccc(Nc2ccnc3ccc(C(F)(F)F)cc23)cc1` the CC50 was greater than 10 µM.
Molecule `Fc1cc(Nc2ccnc3ccc(C(F)(F)F)cc23)cc(F)c1F` has a CC50 greater than 10 µM.
Work on `FC(F)(F)c1cccc(Nc2ccnc3ccc(C(F)(F)F)cc23)c1` yielded a CC50 greater than 10 µM.
With `CC(=O)c1cccc(Nc2ccnc3ccc(C(F)(F)F)cc23)c1` the CC50 was greater than 10 µM.
In the case of `COc1cccc(Nc2ccnc3cc(OC)c(OC)cc23)c1`, the CC50 is reported as greater than 10 µM.
Molecule `C#Cc1ccc(F)c(Nc2ncnc3cc(OC)c(OC)cc23)c1` has a CC50 greater than 10 µM.
For `C#Cc1cccc(Nc2ccnc3ccc(C(F)(F)F)cc23)c1`, the CC50 was greater than 10 µM.
In the case of `FC(F)(F)c1ccc2nccc(Nc3ccccc3Br)c2c1`, the CC50 is reported as greater than 10 µM.
`FC(F)(F)c1ccc2nccc(Nc3ccc(Cl)cc3)c2c1` gave a CC50 greater than 10 µM.
`C#Cc1cccc(Nc2c(C#N)cnc3ccc(OC)cc23)c1` gave a CC50 greater than 10 µM.

Tested on: Venezuelan equine encephalitis virus
Test: Antiviral activity against Venezuelan equine encephalitis virus TC-83 strain infected in human U-87 MG cells assessed as reduction in viral infection measured after 18 hrs post infection by Nano luciferase assay relative to control
Type: functional, organism-based
Settings: TC-83, U-87 MG
Work on `C#Cc1cccc(Nc2ccnc3cc(OC)c(OC)cc23)c1` yielded an EC50 of 7.5 µM.
For `C#Cc1cccc(Nc2ncnc3cc(OC)c(OC)cc23)c1`, the EC50 was 10 µM.
Molecule `C#Cc1cccc(Nc2c(C#N)cnc3cc(OC)c(OC)cc23)c1` has an EC50 greater than 10 µM.
Molecule `COc1cc(Nc2ncnc3ccc(C(F)(F)F)cc23)cc(OC)c1OC` has an EC50 greater than 10 µM.
In the case of `COc1cccc(Nc2ccnc3ccc(C(F)(F)F)cc23)c1`, the EC50 is reported as 5.5 µM.
Work on `N#Cc1ccccc1Nc1ccnc2ccc(C(F)(F)F)cc12` yielded an EC50 greater than 10 µM.
`C#Cc1cccc(Nc2ccnc3ccc(OC)cc23)c1` showed an EC50 greater than 10 µM.
`FC(F)(F)c1ccc2nccc(Nc3ccc(Br)cc3)c2c1` showed an EC50 of 6.3 µM.
In the case of `COc1cc(Nc2ccnc3ccc(C(F)(F)F)cc23)cc(OC)c1`, the EC50 is reported as 2.1 µM.
In the case of `COc1ccc(Nc2ccnc3ccc(C(F)(F)F)cc23)cc1OC`, the EC50 is reported as greater than 10 µM.
`C#Cc1cccc(Nc2ccnc3cc(OC)ccc23)c1` showed an EC50 greater than 10 µM.
With `FC(F)(F)c1ccc2nccc(Nc3ccc4c(c3)OCCO4)c2c1` the EC50 was greater than 10 µM.
In the case of `FC(F)(F)c1ccc2nccc(Nc3ccc4c(c3)OCO4)c2c1`, the EC50 is reported as 1.5 µM.
`COc1ccccc1Nc1ccnc2ccc(C(F)(F)F)cc12` gave an EC50 of 2.5 µM.
In the case of `FC(F)(F)c1ccc2nccc(Nc3ccc(Cl)c(Cl)c3)c2c1`, the EC50 is reported as 0.5 µM.
`C#Cc1cccc(Nc2ncnc3cc(OC)c(OC)cc23)c1F` showed an EC50 of 10 µM.
Molecule `CS(=O)(=O)c1ccc(Nc2ccnc3ccc(C(F)(F)F)cc23)cc1` has an EC50 greater than 10 µM.
`Fc1cc(Nc2ccnc3ccc(C(F)(F)F)cc23)cc(F)c1F` gave an EC50 greater than 10 µM.
In the case of `FC(F)(F)c1cccc(Nc2ccnc3ccc(C(F)(F)F)cc23)c1`, the EC50 is reported as 4.8 µM.
Work on `CC(=O)c1cccc(Nc2ccnc3ccc(C(F)(F)F)cc23)c1` yielded an EC50 greater than 10 µM.
In the case of `COc1cccc(Nc2ccnc3cc(OC)c(OC)cc23)c1`, the EC50 is reported as 4.8 µM.
For `C#Cc1ccc(F)c(Nc2ncnc3cc(OC)c(OC)cc23)c1`, the EC50 was 7.8 µM.
Work on `C#Cc1cccc(Nc2ccnc3ccc(C(F)(F)F)cc23)c1` yielded an EC50 of 2.5 µM.
With `FC(F)(F)c1ccc2nccc(Nc3ccccc3Br)c2c1` the EC50 was greater than 10 µM.
`FC(F)(F)c1ccc2nccc(Nc3ccc(Cl)cc3)c2c1` gave an EC50 of 1.9 µM.
In the case of `C#Cc1cccc(Nc2c(C#N)cnc3ccc(OC)cc23)c1`, the EC50 is reported as greater than 10 µM.

Tested on: not listed separately
Test: Cytotoxicity against Venezuelan equine encephalitis virus TC-83 strain infected human U-87 MG cells assessed as reduction in cell viability by alamar blue assay
Type: cell-based, U-87MG ATCC
Settings: not given
Work on `C#Cc1cccc(Nc2ccnc3cc(OC)c(OC)cc23)c1` yielded a CC50 greater than 10 µM.
Molecule `C#Cc1cccc(Nc2ncnc3cc(OC)c(OC)cc23)c1` has a CC50 greater than 10 µM.
Work on `C#Cc1cccc(Nc2c(C#N)cnc3cc(OC)c(OC)cc23)c1` yielded a CC50 greater than 10 µM.
`COc1cc(Nc2ncnc3ccc(C(F)(F)F)cc23)cc(OC)c1OC` gave a CC50 greater than 10 µM.
Work on `COc1cccc(Nc2ccnc3ccc(C(F)(F)F)cc23)c1` yielded a CC50 greater than 10 µM.
For `N#Cc1ccccc1Nc1ccnc2ccc(C(F)(F)F)cc12`, the CC50 was greater than 10 µM.
Work on `C#Cc1cccc(Nc2ccnc3ccc(OC)cc23)c1` yielded a CC50 greater than 10 µM.
`FC(F)(F)c1ccc2nccc(Nc3ccc(Br)cc3)c2c1` gave a CC50 greater than 10 µM.
Molecule `COc1cc(Nc2ccnc3ccc(C(F)(F)F)cc23)cc(OC)c1` has a CC50 greater than 10 µM.
`COc1ccc(Nc2ccnc3ccc(C(F)(F)F)cc23)cc1OC` gave a CC50 greater than 10 µM.
With `C#Cc1cccc(Nc2ccnc3cc(OC)ccc23)c1` the CC50 was greater than 10 µM.
Molecule `FC(F)(F)c1ccc2nccc(Nc3ccc4c(c3)OCCO4)c2c1` has a CC50 greater than 10 µM.
In the case of `FC(F)(F)c1ccc2nccc(Nc3ccc4c(c3)OCO4)c2c1`, the CC50 is reported as greater than 10 µM.
Molecule `COc1ccccc1Nc1ccnc2ccc(C(F)(F)F)cc12` has a CC50 greater than 10 µM.
Molecule `FC(F)(F)c1ccc2nccc(Nc3ccc(Cl)c(Cl)c3)c2c1` has a CC50 greater than 10 µM.
Molecule `C#Cc1cccc(Nc2ncnc3cc(OC)c(OC)cc23)c1F` has a CC50 greater than 10 µM.
With `CS(=O)(=O)c1ccc(Nc2ccnc3ccc(C(F)(F)F)cc23)cc1` the CC50 was greater than 10 µM.
With `Fc1cc(Nc2ccnc3ccc(C(F)(F)F)cc23)cc(F)c1F` the CC50 was greater than 10 µM.
For `FC(F)(F)c1cccc(Nc2ccnc3ccc(C(F)(F)F)cc23)c1`, the CC50 was greater than 10 µM.
`CC(=O)c1cccc(Nc2ccnc3ccc(C(F)(F)F)cc23)c1` showed a CC50 greater than 10 µM.
With `COc1cccc(Nc2ccnc3cc(OC)c(OC)cc23)c1` the CC50 was greater than 10 µM.
In the case of `C#Cc1ccc(F)c(Nc2ncnc3cc(OC)c(OC)cc23)c1`, the CC50 is reported as greater than 10 µM.
Molecule `C#Cc1cccc(Nc2ccnc3ccc(C(F)(F)F)cc23)c1` has a CC50 greater than 10 µM.
`FC(F)(F)c1ccc2nccc(Nc3ccccc3Br)c2c1` showed a CC50 greater than 10 µM.
`FC(F)(F)c1ccc2nccc(Nc3ccc(Cl)cc3)c2c1` gave a CC50 greater than 10 µM.
Work on `C#Cc1cccc(Nc2c(C#N)cnc3ccc(OC)cc23)c1` yielded a CC50 greater than 10 µM.
